# Test system: HCV replication
# Experiment: HCV replicon assay (luciferase) in ET (Huh-lucubineo-ET) cell line
# Assay type: cell-based
# Conditions: Hepatitis C virus, tested at 5 μM; ET replicon cells; luciferase activity measured 48-72 hours later; relative to no compound control
# Description: A cell line, ET (Huh-lucubineo-ET) was used for screening of compounds of the present invention for inhibiting HCV replication. The ET cell line was stably transfected with RNA transcripts harboring a I389luc-ubi-neo/NS3-3′/ET; replicon with firefly luciferase-ubiquitin-neomycin phosphotransferase fusion protein and EMCV-IRES driven NS3-5B polyprotein containing the cell culture adaptive mutations (E1202G; T12801; K1846T) (Krieger at al, 2001 and unpublished). The ET cells were grown in DMEM (Dulbeco's Modified Eagle's Medium), supplemented with 10% fetal calf serum, 2 mM Glutamine, Penicillin (100 IU/mL)/Streptomycin (100 μg/mL), 1× nonessential amino acids, and 250 μg/mL G418 (“Geneticin”). They were all available through Life Technologies (Bethesda, Md.). The cells were plated at 0.5-1.0×10^4 cells/well in the 96 well plates and incubated for 24 hrs before adding testing compounds. Then the compounds were added to the cells to achieve a final concentration of 0.1 nM to 50 μM and a final DMSO concentration of 0.5%. Luciferase activity were measured 48-72 hours later by adding a lysis buffer and the substrate (Catalog number Glo-lysis buffer E2661 and Bright-Glo luciferase system E2620 Promega, Madison, Wis.). Cells should not be too confluent during the assay. Percent inhibition of replication was plotted relative to no compound control. Under the same condition, cytotoxicity of the compounds was determined using cell proliferation reagent, WST-1 (Roche, Germany). The compounds showing antiviral activities, but no significant cytotoxicities were chosen to determine EC50 and TC50. For these determinations, a 10 point 2-fold serial dilution for each compound was used, which spans a concentration range of 1000 fold. EC50 and similarly TC50 values were calculated by fitting % inhibition at each concentration to the following equation:
# % inhibition=100%/[(IC50/[I])^b+1]
# where b is Hill's coefficient.
# In some preferred embodiments compounds of Formula I will have a % inhibition of at least 20% when tested at 5 μM. In other embodiments the compounds of Formula I will have a % inhibition of at least 50% when tested at 5 μM.
row,Compound,inhibition at 5 µM
1,"O=C(NC1CC1)c1ccc(-c2csc(NC(=O)[C@@H]3CSC(CC4CCOCC4)N3C(=O)OCc3ccccc3)n2)cc1 (mixture of isomers) [Compound 7004, (R)-4-[4-(4-Cyclopropylcarbamoyl-phenyl)-thiazol-2-ylcarbamoyl]-2-(tetrahydro-pyran-4-ylmethyl)-thiazolidine-3-carboxylic acid benzyl ester]",99.9%
2,"O=C(NC1CC1)c1ccc(-c2csc(NC(=O)[C@@H]3CSC(c4ccnc5ccccc45)N3C(=O)OCc3ccccc3)n2)cc1 (mixture of isomers) [Compound 7007, (R)-4-[4-(4-Cyclopropylcarbamoyl-phenyl)-thiazol-2-ylcarbamoyl]-2-quinolin-4-yl-thiazolidine-3-carboxylic acid benzyl ester]",100%
3,"O=C(NC1CC1)c1ccc(-c2csc(NC(=O)[C@@H]3CSC(c4ccncc4F)N3C(=O)OCc3ccccc3)n2)cc1 (mixture of isomers) [Compound 7008, (R)-4-[4-(4-Cyclopropylcarbamoyl-phenyl)-thiazol-2-ylcarbamoyl]-2-(3-fluoro-pyridin-4-yl)-thiazolidine-3-carboxylic acid benzyl ester]",100%
4,"O=C(NC1CC1)c1ccc(-c2csc(NC(=O)[C@@H]3CSC(c4ccc(F)cc4)N3C(=O)OCc3ccccc3)n2)cc1 (mixture of isomers) [Compound 7013, (R)-4-[4-(4-Cyclopropylcarbamoyl-phenyl)-thiazol-2-ylcarbamoyl]-2-(4-fluoro-phenyl)-thiazolidine-3-carboxylic acid benzyl ester]",99.7%
5,"O=C(O)c1ccc(C2SC[C@@H](C(=O)Nc3nc(-c4ccc(C(=O)NC5CC5)cc4)cs3)N2C(=O)OCc2ccccc2)cc1 (mixture of isomers) [Compound 7014, (R)-2-(4-Carboxy-phenyl)-4-[4-(4-cyclopropylcarbamoyl-phenyl)-thiazol-2-ylcarbamoyl]-thiazolidine-3-carboxylic acid benzyl ester]",97.7%
6,"O=C(NC1CC1)c1ccc(-c2csc(NC(=O)[C@@H]3CSC(c4cncs4)N3C(=O)OCc3ccccc3)n2)cc1 (mixture of isomers) [Compound 7015, (R)-4-[4-(4-Cyclopropylcarbamoyl-phenyl)-thiazol-2-ylcarbamoyl]-4,5-dihydro-[2,5′]bithiazolyl-3-carboxylic acid benzyl ester]",100%
7,"COc1cccc(C2SC[C@@H](C(=O)Nc3nc(-c4ccc(C(=O)NC5CC5)cc4)cs3)N2C(=O)OCc2ccccc2)c1 (mixture of isomers) [Compound 7016, (R)-4-[4-(4-Cyclopropylcarbamoyl-phenyl)-thiazol-2-ylcarbamoyl]-2-(3-methoxy-phenyl)-thiazolidine-3-carboxylic acid benzyl ester]",98.5%
8,"N#Cc1ccc(C2SC[C@@H](C(=O)Nc3nc(-c4ccc(C(=O)NC5CC5)cc4)cs3)N2C(=O)OCc2ccccc2)cc1 (mixture of isomers) [Compound 7017, (R)-2-(4-Cyano-phenyl)-4-[4-(4-cyclopropylcarbamoyl-phenyl)-thiazol-2-ylcarbamoyl]-thiazolidine-3-carboxylic acid benzyl ester]",100%
9,"O=C(NC1CC1)c1ccc(-c2csc(NC(=O)[C@@H]3CSC(C4CCCNC4)N3C(=O)OCc3ccccc3)n2)cc1 (mixture of isomers) [Compound 7021, (R)-4-[4-(4-Cyclopropylcarbamoyl-phenyl)-thiazol-2-ylcarbamoyl]-2-piperidin-3-yl-thiazolidine-3-carboxylic acid benzyl ester]",100%
10,"O=C(NC1CC1)c1ccc(-c2csc(NC(=O)[C@@H]3CSC(c4cncnc4)N3C(=O)OCc3ccccc3)n2)cc1 (mixture of isomers) [Compound 7022, (R)-4-[4-(4-Cyclopropylcarbamoyl-phenyl)-thiazol-2-ylcarbamoyl]-2-pyrimidin-5-yl-thiazolidine-3-carboxylic acid benzyl ester]",100%
11,"O=C(NC1CC1)c1ccc(-c2csc(NC(=O)[C@@H]3CSC(C4CCOCC4)N3C(=O)OCc3ccccc3)n2)cc1 (mixture of isomers) [Compound 7025, (R)-4-[4-(4-Cyclopropylcarbamoyl-phenyl)-thiazol-2-ylcarbamoyl]-2-(tetrahydro-pyran-4-yl)-thiazolidine-3-carboxylic acid benzyl ester]",100%
12,"O=C(NC1CC1)c1ccc(-c2csc(NC(=O)[C@@H]3CSC(c4ccnc(Cl)c4)N3C(=O)OCc3ccccc3)n2)cc1 (mixture of isomers) [Compound 7029, (R)-2-(2-Chloro-pyridin-4-yl)-4-[4-(4-cyclopropylcarbamoyl-phenyl)-thiazol-2-ylcarbamoyl]-thiazolidine-3-carboxylic acid benzyl ester]",99.8%
13,"COc1ccc(C2SC[C@@H](C(=O)Nc3nc(-c4ccc(C(=O)NC5CC5)cc4)cs3)N2C(=O)OCc2ccccc2)cc1 (mixture of isomers) [Compound 7030, (R)-4-[4-(4-Cyclopropylcarbamoyl-phenyl)-thiazol-2-ylcarbamoyl]-2-(4-methoxy-phenyl)-thiazolidine-3-carboxylic acid benzyl ester]",99.9%
14,"O=C(NC1CC1)c1ccc(-c2csc(NC(=O)[C@@H]3CSC(c4ccncc4)N3C(=O)OCc3ccccc3)n2)cc1 (mixture of isomers) [Compound 7031, (R)-4-[4-(4-Cyclopropylcarbamoyl-phenyl)-thiazol-2-ylcarbamoyl]-2-pyridin-4-yl-thiazolidine-3-carboxylic acid benzyl ester]",99.8%
15,"N#Cc1cccc(C2SC[C@@H](C(=O)Nc3nc(-c4ccc(C(=O)NC5CC5)cc4)cs3)N2C(=O)OCc2ccccc2)c1 (mixture of isomers) [Compound 7033, (R)-2-(3-Cyano-phenyl)-4-[4-(4-cyclopropylcarbamoyl-phenyl)-thiazol-2-ylcarbamoyl]-thiazolidine-3-carboxylic acid benzyl ester]",100%
16,"O=C(O)c1cccc(C2SC[C@@H](C(=O)Nc3nc(-c4ccc(C(=O)NC5CC5)cc4)cs3)N2C(=O)OCc2ccccc2)c1 (mixture of isomers) [Compound 7034, (R)-2-(3-Carboxy-phenyl)-4-[4-(4-cyclopropylcarbamoyl-phenyl)-thiazol-2-ylcarbamoyl]-thiazolidine-3-carboxylic acid benzyl ester]",98.7%
17,"O=C(NC1CC1)c1ccc(-c2csc(NC(=O)[C@@H]3CSC(C4CCCCC4)N3C(=O)OCc3ccccc3)n2)cc1 (mixture of isomers) [Compound 7035, (R)-2-Cyclohexyl-4-[4-(4-cyclopropylcarbamoyl-phenyl)-thiazol-2-ylcarbamoyl]-thiazolidine-3-carboxylic acid benzyl ester]",98.9%
18,"O=C(NC1CC1)c1ccc(-c2csc(NC(=O)[C@@H]3CSC(c4cnco4)N3C(=O)OCc3ccccc3)n2)cc1 (mixture of isomers) [Compound 7036, (R)-4-[4-(4-Cyclopropylcarbamoyl-phenyl)-thiazol-2-ylcarbamoyl]-2-oxazol-5-yl-thiazolidine-3-carboxylic acid benzyl ester]",99.8%
19,"O=C(NC1CC1)c1ccc(-c2csc(NC(=O)[C@@H]3CSC(c4ccccc4F)N3C(=O)OCc3ccccc3)n2)cc1 (mixture of isomers) [Compound 7037, (R)-4-[4-(4-Cyclopropylcarbamoyl-phenyl)-thiazol-2-ylcarbamoyl]-2-(2-fluoro-phenyl)-thiazolidine-3-carboxylic acid benzyl ester]",100%
20,"O=C(NC1CC1)c1ccc(-c2csc(NC(=O)[C@@H]3CSC(C4CCNCC4)N3C(=O)OCc3ccccc3)n2)cc1 (mixture of isomers) [Compound 7042, (R)-4-[4-(4-Cyclopropylcarbamoyl-phenyl)-thiazol-2-ylcarbamoyl]-2-piperidin-4-yl-thiazolidine-3-carboxylic acid benzyl ester]",100%
21,"COc1ccccc1C1SC[C@@H](C(=O)Nc2nc(-c3ccc(C(=O)NC4CC4)cc3)cs2)N1C(=O)OCc1ccccc1 (mixture of isomers) [Compound 7047, (R)-4-[4-(4-Cyclopropylcarbamoyl-phenyl)-thiazol-2-ylcarbamoyl]-2-(2-methoxy-phenyl)-thiazolidine-3-carboxylic acid benzyl ester]",99.6%
22,"O=C(NC1CC1)c1ccc(-c2csc(NC(=O)[C@@H]3CSC(c4cccc(F)c4)N3C(=O)OCc3ccccc3)n2)cc1 (mixture of isomers) [Compound 7048, (R)-4-[4-(4-Cyclopropylcarbamoyl-phenyl)-thiazol-2-ylcarbamoyl]-2-(3-fluoro-phenyl)-thiazolidine-3-carboxylic acid benzyl ester]",99.3%
23,"O=C(NC1CC1)c1ccc(-c2csc(NC(=O)[C@@H]3CSC(c4ccnc(O)c4)N3C(=O)OCc3ccccc3)n2)cc1 (mixture of isomers) [Compound 7049, (R)-4-[4-(4-Cyclopropylcarbamoyl-phenyl)-thiazol-2-ylcarbamoyl]-2-(2-hydroxy-pyridin-4-yl)-thiazolidine-3-carboxylic acid benzyl ester]",98.8%

# — US20080181866A1, “Amido Anti-viral Compounds” (Genelabs Technologies, Inc., priority 2006, published 2008)
